From patent US20090298902A1, “PESTICIDE COMPOSITIONS FOR COMBATING ARTHROPOD PESTS, SNAILS AND NEMATODES” (priority 2006, published 2009) come the findings set out here.

The subject of this assay is workers of the eastern subterranean termite, Reticulitermes flavipes. Briefly: Test example 4: soil incorporation bioassay with compound P5a formulations. It is filed as in vivo. The settings on record: 24 h, 1 DAT, read-out: Mean cumulative % mortality at days after treatment (DAT). As for the experimental part:
Bioassays were conducted in 60×15 mm Petri dishes with a 1% agar layer for moisture and 15 termite workers per dish. Granular formulations were incorporated into the Princeton sandy loam soil by hand shaking and mixing with use of a commercial jar roller. After incorporation, water was added to field capacity, and the soil was rolled again. The soil was allowed to sit at field capacity overnight. The soil was then air dried for 24 hours prior to introduction into the test dishes. Conventional suspension concentrate of fipronil was used as a standard, and untreated soil used as a control. Test dishes were maintained at approximately 26° C. and 85% RH. Dishes were observed daily for 13 days for mortality. The concentration of active ingredient was 0.0004875% (w/w) in trench.
Test example 4 was performed similar to test example 1, using formulations containing compound P5a. Comparison of a superabsorber formulation of compound P5 to a DC formulation of compound P5 for bioactivity against workers of the eastern subterranean termite, Reticulitermes flavipes, via soil (Princeton sandy loam) incorporation;

Structures are written as SMILES.

With `CCN/C(=N\Nc1c(Cl)cc(C(F)(F)F)cc1Cl)C1(C)CC1(Cl)Cl` (centres unmarked) [Compound P5a], the mortality at 10 ppm (Rate 10 ppm) is 100%. Also, where the note is “Rate 100 ppm”, the mortality at 100 ppm amounted to 100%.

For orientation: mortality means the share of the test organisms that died.
